Test results: ChEMBL document CHEMBL3885861, “Open TG-GATES”

Species on record: Rattus norvegicus
Experiment: Open TG-GATES - Regimen: Daily Repeat
Assay type: toxicity, organism-based, Sprague-Dawley
Design: regimen Daily Repeat, gender Male, age 6 weeks
Settings: in vivo, po, 100 mg/kg, […], route gavage, dose level Low; for KIDNEY_L / KIDNEY_R / KIDNEY_TOTAL: tissue Kidney; for LIVER: tissue Liver; for A/G / ALP / ALT / AST / BUN / CRE / Ca / Cl / DBIL / GLC / IP / K / LDH / Na / PL / RALB / TBIL / TC / TG / TP / gamma-GTP: tissue Plasma

CCOc1ccc(NC(=O)CC(C)O)cc1 (stereo unspecified) [BUCETIN] was tested, and the Lym (tissue Blood, time 28 day) was 81%, the MCH (tissue Blood, time 28 day) was 19.5 pg and the MCHC (tissue Blood, time 28 day) was 34.9%. The MCV (tissue Blood, time 28 day) was 55.9 fL, the Mono (tissue Blood, time 28 day) was 2% and the Neu (tissue Blood, time 28 day) was 15%. It also gave a PT (tissue Blood, time 28 day) of 14.1 s, a Plat (tissue Blood, time 28 day) of 114.4 x10_4/uL and an RBC (tissue Blood, time 28 day) of 802.8 x10_4/ul. For the same compound, the Ret (tissue Blood, time 28 day) was 2.5%, the WBC (tissue Blood, time 28 day) was 132 x10_2/uL and the KIDNEY_L (time 7 day) was 1.3 g. The KIDNEY_R (time 7 day) was 1.3 g, the KIDNEY_TOTAL (time 7 day) was 2.5 g and the KIDNEY_L (time 14 day) was 1.3 g. For the same compound, the KIDNEY_R (time 14 day) was 1.2 g, the KIDNEY_TOTAL (time 14 day) was 2.5 g and the KIDNEY_L (time 28 day) was 1.4 g. It also gave a KIDNEY_R (time 28 day) of 1.4 g, a KIDNEY_TOTAL (time 28 day) of 2.9 g and an LIVER (time 7 day) of 14.8 g. The LIVER (time 14 day) was 14.9 g, the LIVER (time 28 day) was 16.3 g and the A/G (time 7 day) was 0.8. For the same compound, the ALP (time 7 day) was 1437.2 IU/L, the ALT (time 7 day) was 42.8 IU/L and the AST (time 7 day) was 69.6 IU/L. It also gave a BUN (time 7 day) of 15.8 mg/dL, a CRE (time 7 day) of 0.2 mg/dL and a Ca (time 7 day) of 11 mg/dL. It also gave a Cl (time 7 day) of 105 meq/L, a DBIL (time 7 day) of 0.022 mg/dL and a GLC (time 7 day) of 188.4 mg/dL. It also gave an IP (time 7 day) of 7.3 mg/dL, a K (time 7 day) of 4.2 meq/L and an LDH (time 7 day) of 103.8 IU/L. It also gave a Na (time 7 day) of 144.4 meq/L, a PL (time 7 day) of 172.8 mg/dL and an RALB (time 7 day) of 2.7 g/dL. The TBIL (time 7 day) was 0.04 mg/dL, the TC (time 7 day) was 80.6 mg/dL and the TG (time 7 day) was 143 mg/dL. For the same compound, the TP (time 7 day) was 6 g/dL, the gamma-GTP (time 7 day) was 1.2 IU/L and the A/G (time 14 day) was 0.8. The ALP (time 14 day) was 1590.2 IU/L, the ALT (time 14 day) was 34.4 IU/L and the AST (time 14 day) was 62.6 IU/L. It also gave a BUN (time 14 day) of 14.6 mg/dL, a CRE (time 14 day) of 0.2 mg/dL and a Ca (time 14 day) of 11.1 mg/dL. It also gave a Cl (time 14 day) of 105.8 meq/L, a DBIL (time 14 day) of 0.02 mg/dL and a GLC (time 14 day) of 191 mg/dL. It also gave an IP (time 14 day) of 7.4 mg/dL, a K (time 14 day) of 3.8 meq/L and an LDH (time 14 day) of 77.4 IU/L. For the same compound, the Na (time 14 day) was 145.2 meq/L, the PL (time 14 day) was 159.2 mg/dL and the RALB (time 14 day) was 2.8 g/dL. The TBIL (time 14 day) was 0.06 mg/dL, the TC (time 14 day) was 71.2 mg/dL and the TG (time 14 day) was 145 mg/dL. It also gave a TP (time 14 day) of 6.1 g/dL, a gamma-GTP (time 14 day) of 1.2 IU/L and an A/G (time 28 day) of 0.8. It also gave an ALP (time 28 day) of 1115.2 IU/L, an ALT (time 28 day) of 32.6 IU/L and an AST (time 28 day) of 64.6 IU/L. The BUN (time 28 day) was 15.8 mg/dL, the CRE (time 28 day) was 0.3 mg/dL and the Ca (time 28 day) was 11 mg/dL. The Cl (time 28 day) was 104.8 meq/L, the DBIL (time 28 day) was 0.022 mg/dL and the GLC (time 28 day) was 188.6 mg/dL. For the same compound, the IP (time 28 day) was 5.9 mg/dL, the K (time 28 day) was 3.9 meq/L and the LDH (time 28 day) was 82.8 IU/L. For the same compound, the Na (time 28 day) was 145.2 meq/L, the PL (time 28 day) was 155 mg/dL and the RALB (time 28 day) was 2.9 g/dL. It also gave a TBIL (time 28 day) of 0.06 mg/dL, a TC (time 28 day) of 70.4 mg/dL and a TG (time 28 day) of 145 mg/dL. For the same compound, the TP (time 28 day) was 6.4 g/dL and the gamma-GTP (time 28 day) was 1.4 IU/L.
